# “Also recorded” adds a separate entry of the source. Where two headings read alike, the source gives them in different places.
# B1: cystatin C (protein, UniProt P01034 27-146, looked up)
# Cystatin-C: SSPGKPPRLVGGPMDASVEEEGVRRALDFAVGEYNKASNDMYHSRALQVVRARKQIVAGVNYFLDVELGRTTCTKTQPNLDNCPFHDQPHLKRKAFCSFQIYAVPWQGTMTLSKSTCQDA
# B2: α1-anti-chymotrypsin (protein, UniProt P01011 24-423, looked up)
# Alpha-1-antichymotrypsin: HPNSPLDEENLTQENQDRGTHVDLGLASANVDFAFSLYKQLVLKAPDKNVIFSPLSISTALAFLSLGAHNTTLTEILKGLKFNLTETSEAEIHQSFQHLLRTLNQSSDELQLSMGNAMFVKEQLSLLDRFTEDAKRLYGSEAFATDFQDSAAAKKLINDYVKNGTRGKITDLIKDLDSQTMMVLVNYIFFKAKWEMPFDPQDTHQSRFYLSKKKWVMVPMMSLHHLTIPYFRDEELSCTVVELKYTGNASALFILPDQDKMEEVEAMLLPETLKRWRDSLEFREIGELYLPKFSISRDYNLNDILLQLGIEEAFTSKADLSGITGARNLAVSQVVHKAVLDVFEEGTEASAATAVKITLLSALVETRTIVRFNRPFLMIIVPTDTQNIFFMSKVTNPKQA
# How the values were obtained:
# [1] = Flow cytometric calcium permeabilization of phosphatidylserine liposomes (Fluo-3/DiD); assay type: biochemical; conditions: for permeabilization of negatively charged (phosphatidylserine) liposomes to calcium: 400 nm liposomes, Fluo-3, flow cytometer
# Method: (§1) The figure is a composite of data which was presented and analyzed in detail in (Zaretsky and Zaretskaia 2020, Zaretsky and Zaretskaia 2020). Liposomes (400 nm) were made of either phosphatidylserine (A-E, negatively charged lipid) or phosphatidylcholine (F-H, neutral lipid) with added DiD and were extruded in the Ca-free buffer containing 1 mM Fluo-3. After the addition of calcium, aliquots of peptide were added. Ionomycin was used as a positive control. Fluorescence of liposomes was analyzed using a flow cytometer. Each dot at the graph represent a single liposome registered in the flow. The intensity of DiD fluorescence characterizes the amount of membrane material in the liposome, while the fluorescence of Fluo-3 depends on the intraliposomal presence of calcium. […] The liposomes inside rectangle (area R1) are permeabilized, and the number of liposomes which were counted to be within the area is shown.
# Liposomes with embedded ion-sensitive probe are used as a test system. Liposomes are extruded from phosphatidylserine containing membrane probe (i.e. DiD) in a calcium-free buffer containing ion-sensitive probe (i.e. Fluo-4) and volume probe (i.e. dextran-tetramethylrhodamin) or membrane probe (DiD). Extravesicular probes are cleared using either centrifugation, or dialysis. After the addition of calcium, the intravesicular calcium-sensing probe remain non-fluorescent because membranes are not permeable to calcium. If membrane channels are formed, calcium enters permeable liposomes, saturates the calcium-sensing dye, so the liposome becomes fluorescent. The number of fluorescent liposomes is an estimate of the number of channel-forming units in the solution.
# [2] = Flow cytometric calcium permeabilization of phosphatidylcholine liposomes (Fluo-3/DiD); assay type: biochemical; conditions: 400 nm liposomes, Fluo-3, flow cytometer
# Method: as §1
# [3] = system: Aβ-induced apoptosis in the brain; conditions: cited from earlier work; for Aβ-induced apoptosis (TUNEL marker in the brain) / accumulation of Aβ immunoreactivity / amyloid: chronic Aβ infusion with simultaneous i.c.v. infusion of inhibitor
# [4] = biological target: amyloid channels (Homo sapiens, UniProt P05067); conditions: cited from earlier work
# Sequence of amyloid channels (P05067 672-711): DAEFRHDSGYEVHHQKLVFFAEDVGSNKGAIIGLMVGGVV
# [5] = cited from earlier work
# [6] = system: Aβ1-42-induced drop of cell survival; conditions: Tizon 2010; cited from earlier work
# [7] = system: 15 cells derived from pancreatic islets of Langerhans; conditions: cited from earlier work; for beta-amyloid-induced drop in cell viability: two cell lines, not specified
# [8] = system: 15 cells derived from pancreatic islets of Langerhans; conditions: cited from earlier work; for amylin-induced drop in cell viability / cellular toxicity: pancreatic islet cell line
# [9] = system: Aβ1-42 toxicity; conditions: Aβ1-42, Aksenov 1996; cited from earlier work
# [10] = system: rat primary cortical cultures; conditions: MTT, different concentrations of Aβ; cited from earlier work
# [11] = MTT, listed as al-anti-chymotrypsin
molecule,measurement,setting,value
C[C@H](CCC(=O)O)C[C@H](C)C[C@H](C)C(=O)/C=C(\O)[C@H](C)C[C@H](C)C/C=C/[C@@H](C)[C@@H](O)[C@@H](C)[C@@H](O)C[C@@H]1CC[C@@](C)([C@H]2CC[C@@](C)([C@@H](C)O)O2)O1 [ionomycin],permeabilization of negatively charged (phosphatidylserine) liposomes to calcium,[1],permeabilizes liposomes
same,permeabilization of neutral (phosphatidylcholine) liposomes to calcium,[2],permeabilizes thousands of liposomes
CC(=O)N[C@@H](CC(C)C)C(=O)N[C@@H](CC(C)C)C(=O)N[C@H](C=O)CCCNC(=N)N [leupeptin],Aβ-induced apoptosis (TUNEL marker in the brain),[3]; rats,promoted apoptosis
same,accumulation of Aβ immunoreactivity / amyloid,[3]; rats,accumulation of extracellular and intracellular Aβ immunoreactivity
same,"apoptosis by the inhibitor itself (spontaneously occurring, TUNEL)","[3]; rats, inhibitor without Aβ",tends to increase apoptosis
NC(CO)(CO)CO [tromethamine],blockade of smaller amyloid channels (<400 pS),[4],effectively blocked
same,blockade of super-high conductance giant channels (>1 nS),[4],less effective
Aβ1-42: full-length amyloid peptide,permeabilization of negatively charged (phosphatidylserine) liposomes to calcium,[1],ineffective; also recorded: does not permeabilize liposomal membranes
"Aβ22-35: longer beta-amyloid fragment without positive charge, non-channel-forming (EDVGSNKGAIIGLM; Amyloid-beta protein 42; UniProt P05067 693-706, looked up, fragment)",permeabilization of negatively charged (phosphatidylserine) liposomes to calcium,[1],does not create a noticeable number of channels; also recorded: does not permeabilize liposomes
"Aβ25-35: positively charged short beta-amyloid fragment, channel-forming (GSNKGAIIGLM; Amyloid-beta protein 42; UniProt P05067 696-706, looked up, fragment)",share of channels with high conductance,"[5]; acidic pH (pH 5.0), 20 μM peptide",more than 30%
same,conductance of channels formed (upper value),[5]; planar lipid bilayers,up to 1 nS
same,permeabilization of negatively charged (phosphatidylserine) liposomes to calcium,[1],Membrane permeabilization occurs; also recorded: creates multiple liposomes permeable to calcium
same,molecules of peptide out of which one channel is formed,[1]; model conditions,approximately 10^12 molecules
same,permeabilization of neutral (phosphatidylcholine) liposomes to calcium,[2],does not permeabilize liposomes; also recorded: not permeabilized
aprotinin,"apoptosis by the inhibitor itself (spontaneously occurring, TUNEL)","[3]; rat, in vivo",tends to decrease even spontaneously occurring apoptosis
same,Aβ-induced apoptosis (TUNEL marker in the brain),[3]; rats,prevented Aβ-induced apoptosis
same,accumulation of Aβ immunoreactivity / amyloid,[3]; rats,did not exacerbate intracellular accumulation of amyloid
B1,drop of cell survival induced by Aβ1-42,[6],prevented the drop of cell survival induced by Aβ1-42
B2,optimal dose for inhibition of amyloid toxicity,"[7]; 15 cells (IS cells), MTT, different concentrations of Aβ",10^−7 M
same,beta-amyloid-induced drop in cell viability,[7]; MTT,can protect against Aβ-induced drop in cell viability
same,beta-amyloid-induced drop in cell viability,[7]; [11],prevented
same,effect of further increase of ACT concentration on protection against beta-amyloid,"[7]; above optimal dose, bell-shaped dose-dependence",disappearance of protection; also recorded: bell-shaped dose-dependence of protection
same,protection against beta-amyloid-induced drop in cell viability,"[7]; in some conditions, cell line not specified (15 cells or rat primary cortical cultures), MTT",100%
same,amylin-induced drop in cell viability / cellular toxicity,[8]; MTT,prevent amylin-induced cellular toxicity
same,amylin-induced drop in cell viability / cellular toxicity,[8]; [11],prevented
same,protection against amylin,[8]; MTT,< 100%
same,effect of further increase of ACT concentration on protection against amylin,[8]; above optimal dose,significantly decreased the protective effect
same,effect on fibril formation,[9],without affecting fibril formation
same,optimal dose for inhibition of amyloid toxicity,[10],10^−8 M

# From US20220249606A1, “Method of treatment of degenerative diseases caused by membrane channel-forming peptides fragments” (Zarbio, priority 2021, published 2022)
